As usually defined, the MIC is the smallest concentration in the dilution series that meets the test's criterion for growth inhibition. Low values mean inhibition by little substance, high ones a need for much substance.

This note sets out measurements from ChEMBL document CHEMBL2424519, “DABCO-promoted one-pot synthesis of heteroaryl-substituted benzenes and their biological evaluation” (2013).

The subject of experiment [1] is Pseudomonas aeruginosa. Kind of experiment: Antibacterial activity against Pseudomonas aeruginosa at 10 mg/ml after 24 hrs by agar-diffusion technique. It counts as functional. Conditions: read-out: IZ. (A growth-free zone around the sample is the usual read-out of agar diffusion tests.)
Experiment [2] deals with Klebsiella pneumoniae. Kind of experiment: Antibacterial activity against Klebsiella pneumoniae at 10 mg/ml after 24 hrs by agar-diffusion technique. It counts as functional. Conditions: read-out: IZ.
Experiment [3] concerns Salmonella typhi. Nature of the experiment: Antibacterial activity against Salmonella typhi at 10 mg/ml after 24 hrs by agar-diffusion technique. Particulars: Salmonella enterica, read-out: IZ. In kind it is functional, Salmonella enterica subsp. enterica serovar Typhi.
Experiment [4] relates to Aspergillus niger. Kind of experiment: Antifungal activity against Aspergillus niger after 7 days by disc diffusion technique. It counts as functional. Particulars: 168 h.
The subject of experiment [5] is Aspergillus flavus. Kind of experiment: Antifungal activity against Aspergillus flavus after 7 days by disc diffusion technique. It counts as functional. Conditions: 168 h.
Experiment [6] deals with Candida tropicalis. Nature of the experiment: Antifungal activity against Candida tropicalis after 7 days by disc diffusion technique. It counts as functional. Conditions: 168 h.
The test system of experiment [7] is Candida albicans. Kind of experiment: Antifungal activity against Candida albicans after 7 days by disc diffusion technique. Conditions: 168 h. In kind it is functional.
Experiment [8] relates to Pseudomonas aeruginosa. Nature of the experiment: Antibacterial activity against Pseudomonas aeruginosa after 24 hrs by agar-diffusion technique. It counts as functional.
In experiment [9] the test system is Klebsiella pneumoniae. Nature of the experiment: Antibacterial activity against Klebsiella pneumoniae after 24 hrs by agar-diffusion technique. In kind it is functional.
In experiment [10] the test system is Salmonella typhi. Nature of the experiment: Antibacterial activity against Salmonella typhi after 24 hrs by agar-diffusion technique. It counts as functional, Salmonella enterica subsp. enterica serovar Typhi. Conditions: Salmonella enterica.
The test system of experiment [11] is Escherichia coli. Kind of experiment: Antibacterial activity against Escherichia coli after 24 hrs by agar-diffusion technique. It counts as functional.
The test system of experiment [12] is Aspergillus niger. Nature of the experiment: Antifungal activity against Aspergillus niger at 10 mg/ml after 7 days by disc diffusion technique. It counts as functional. Conditions: 168 h, read-out: IZ.
Experiment [13] concerns Candida tropicalis. Nature of the experiment: Antifungal activity against Candida tropicalis at 10 mg/ml after 7 days by disc diffusion technique. In kind it is functional. Conditions: 168 h, read-out: IZ.
Experiment [14] concerns Aspergillus flavus. Kind of experiment: Antifungal activity against Aspergillus flavus at 10 mg/ml after 7 days by disc diffusion technique. In kind it is functional. Particulars: 168 h, read-out: IZ.
Experiment [15] concerns Candida albicans. Kind of experiment: Antifungal activity against Candida albicans at 10 mg/ml after 7 days by disc diffusion technique. In kind it is functional. Particulars: 168 h, read-out: IZ.
Experiment [16] concerns Escherichia coli. Nature of the experiment: Antibacterial activity against Escherichia coli at 10 mg/ml after 24 hrs by agar-diffusion technique. It counts as functional. Conditions: read-out: IZ.
In experiment [17] the test system is Mycobacterium tuberculosis. Nature of the experiment: Antitubercular activity against Mycobacterium tuberculosis H37Rv at 1 ug/ml after 4 weeks by Lowenstein-Jensen medium method. In kind it is functional, organism-based.
Experiment [18] concerns Mycobacterium tuberculosis. Nature of the experiment: Antitubercular activity against Mycobacterium tuberculosis H37Rv at 10 ug/ml after 4 weeks by Lowenstein-Jensen medium method. It counts as functional, organism-based.
The test system of experiment [19] is Mycobacterium tuberculosis. Nature of the experiment: Antitubercular activity against Mycobacterium tuberculosis H37Rv at 100 ug/ml after 4 weeks by Lowenstein-Jensen medium method. It counts as functional, organism-based.

The structures appear in SMILES notation. Converted amounts (≈) assume the structure as drawn. The source made the active and inactive calls.

As for `O=C(O)c1cn(C2CC2)c2cc(N3CCNCC3)c(F)cc2c1=O` [CIPROFLOXACIN], the values for the zone of inhibition at 10000 µg/mL in the experiment with Pseudomonas aeruginosa [1], in the experiment on Klebsiella pneumoniae [2] and in the experiment on Salmonella typhi [3] were 23 mm, 22 mm and 24 mm, respectively.

Consider `CCOC(=O)c1c(-c2ccc(OC)cc2)cc(-c2cccs2)c([N+](=O)[O-])c1N`, for which the MIC in the experiment with Aspergillus niger [4], with Aspergillus flavus [5], against Candida tropicalis [6], with Candida albicans [7], against Pseudomonas aeruginosa [8] and against Klebsiella pneumoniae [9] was 20 µg/mL (≈ 50.2 µM) throughout. The MIC against Salmonella typhi [10] and in the experiment with Escherichia coli [11] was 20 µg/mL (≈ 50.2 µM) throughout. Moreover, the zone of inhibition at 10000 µg/mL with Aspergillus niger [12] stood at 18 mm; with Candida tropicalis [13], 42 mm; with Aspergillus flavus [14], 14 mm; with Candida albicans [15], 16 mm; in the experiment with Pseudomonas aeruginosa [1] it was 18 mm; in the experiment with Klebsiella pneumoniae [2], 20 mm. The zone of inhibition at 10000 µg/mL with Salmonella typhi [3] is 16 mm; in the experiment on Escherichia coli [16], 14 mm. Moreover, the result in experiment [17], in [18] and in experiment [19] was Active.

Consider `N#Cc1c(-c2ccccc2)cc(-c2cccs2)c([N+](=O)[O-])c1N`, for which the MIC against Aspergillus niger [4], in the experiment on Aspergillus flavus [5], in the experiment with Candida tropicalis [6], against Candida albicans [7], in the experiment with Pseudomonas aeruginosa [8] and in the experiment on Klebsiella pneumoniae [9] was 20 µg/mL (≈ 62.2 µM) in each case. Further, the MIC in the experiment on Salmonella typhi [10] and in the experiment on Escherichia coli [11] was 20 µg/mL (≈ 62.2 µM) in each case. The zone of inhibition at 10000 µg/mL turned out to be 15 mm in the experiment with Aspergillus niger [12]; 21 mm with Candida tropicalis [13]; 12 mm in the experiment on Aspergillus flavus [14]; 24 mm in the experiment on Candida albicans [15]; 10 mm with Pseudomonas aeruginosa [1]; 8 mm in the experiment with Klebsiella pneumoniae [2]. Also, the zone of inhibition at 10000 µg/mL in the experiment on Salmonella typhi [3] was found to be 9 mm; with Escherichia coli [16], 12 mm. The outcome in experiment [17], in [18] and in experiment [19] was Active.

On to `NC(=O)c1cnccn1`, for which the result in [17], in experiment [18] and in [19] was Active.

In the case of `CCOC(=O)c1c(-c2ccc(OC)cc2)cc(-c2ccc[nH]2)c([N+](=O)[O-])c1N`, the MIC against Aspergillus niger [4], in the experiment on Aspergillus flavus [5], with Candida tropicalis [6], with Candida albicans [7], against Pseudomonas aeruginosa [8] and against Klebsiella pneumoniae [9] was 20 µg/mL (≈ 52.4 µM) each time. For the same compound, the minimum inhibitory concentration (MIC) with Salmonella typhi [10] and in the experiment on Escherichia coli [11] was 20 µg/mL (≈ 52.4 µM) in each case. Also, the zone of inhibition at 10000 µg/mL was 10 mm in the experiment on Aspergillus niger [12]; 10 mm in the experiment on Candida tropicalis [13]; 12 mm with Aspergillus flavus [14]; 9 mm in the experiment with Candida albicans [15]; 12 mm in the experiment with Pseudomonas aeruginosa [1]; 16 mm in the experiment on Klebsiella pneumoniae [2]. Besides, the zone of inhibition at 10000 µg/mL with Salmonella typhi [3] came out at 14 mm; with Escherichia coli [16] it was 10 mm. Also, the result in [17], in experiment [18] and in experiment [19] was Active.

On to `CCOC(=O)c1c(-c2ccc(OC)cc2)cc(-c2ccco2)c([N+](=O)[O-])c1N`, for which the MIC against Aspergillus niger [4], against Aspergillus flavus [5], against Candida tropicalis [6], in the experiment on Candida albicans [7], with Pseudomonas aeruginosa [8] and with Klebsiella pneumoniae [9] was 20 µg/mL (≈ 52.3 µM) each time. Besides, the MIC against Salmonella typhi [10] and in the experiment on Escherichia coli [11] was 20 µg/mL (≈ 52.3 µM) in each case. Moreover, the zone of inhibition at 10000 µg/mL in the experiment with Aspergillus niger [12] was 10 mm; in the experiment with Candida tropicalis [13], 8 mm; with Aspergillus flavus [14] it was 9 mm; with Candida albicans [15], 7 mm; in the experiment with Pseudomonas aeruginosa [1], 8 mm; in the experiment on Klebsiella pneumoniae [2], 9 mm. Besides, the zone of inhibition at 10000 µg/mL came to 7 mm with Salmonella typhi [3] and 10 mm with Escherichia coli [16]. Besides, the outcome in experiment [17], in experiment [18] and in experiment [19] was Active.

As to `N#Cc1c(-c2ccccc2)cc(-c2ccc[nH]2)c([N+](=O)[O-])c1N`, the MIC against Aspergillus niger [4], against Aspergillus flavus [5], against Candida tropicalis [6], with Candida albicans [7], in the experiment with Pseudomonas aeruginosa [8] and against Klebsiella pneumoniae [9] was 20 µg/mL (≈ 65.7 µM) in each case. Moreover, the MIC in the experiment on Salmonella typhi [10] and against Escherichia coli [11] was 20 µg/mL (≈ 65.7 µM) in each case. In addition, the zone of inhibition at 10000 µg/mL with Aspergillus niger [12] is 20 mm; in the experiment on Candida tropicalis [13], 12 mm; in the experiment on Aspergillus flavus [14], 16 mm; in the experiment on Candida albicans [15], 18 mm; with Pseudomonas aeruginosa [1] it was 16 mm; with Klebsiella pneumoniae [2], 18 mm. In addition, the zone of inhibition at 10000 µg/mL in the experiment with Salmonella typhi [3] was 24 mm; with Escherichia coli [16], 14 mm. Further, the result in experiment [17], in experiment [18] and in experiment [19] was Active.

For the compound `Clc1ccccc1C(c1ccccc1)(c1ccccc1)n1ccnc1` [CLOTRIMAZOLE], the zone of inhibition at 10000 µg/mL in the experiment with Aspergillus niger [12] worked out at 23 mm; in the experiment on Candida tropicalis [13] it was 21 mm; with Aspergillus flavus [14], 19 mm; in the experiment with Candida albicans [15], 20 mm.

Turning to `N#Cc1c(-c2ccccc2)cc(-c2ccco2)c([N+](=O)[O-])c1N`, the MIC in the experiment with Aspergillus niger [4], against Aspergillus flavus [5], in the experiment on Candida tropicalis [6], with Candida albicans [7], against Pseudomonas aeruginosa [8] and against Klebsiella pneumoniae [9] was 20 µg/mL (≈ 65.5 µM) throughout. The minimal inhibitory concentration (MIC) in the experiment with Salmonella typhi [10] and in the experiment with Escherichia coli [11] was 20 µg/mL (≈ 65.5 µM) each time. Moreover, the zone of inhibition at 10000 µg/mL in the experiment on Aspergillus niger [12] was 8 mm; in the experiment with Candida tropicalis [13] it was 8 mm; with Aspergillus flavus [14], 14 mm; with Candida albicans [15] it was 10 mm; in the experiment on Pseudomonas aeruginosa [1] it was 14 mm; with Klebsiella pneumoniae [2], 12 mm. In addition, the figures for the zone of inhibition at 10000 µg/mL with Salmonella typhi [3] and in the experiment on Escherichia coli [16] were 16 mm and 17 mm, respectively. The result in [17], in [18] and in [19] was Active.
